According to patent US20230021483A1, “[…] […] METHOD AND CLASSIFICATION OF PHARMACEUTICAL COMPONENTS BY USING TRANSCRIPTOMES” (National Institutes of Biomedical Innovation, Health and …, priority 2016, published 2023):
Where “and” joins values, the source holds several entries; their conditions need not be identical. Equal values may be shown once.

Legend:
[1] = tested on: inguinal lymph nodes (LN); experiment: Whole organ transcriptome (GeneChip microarray) of draining inguinal lymph nodes 6 h after adjuvant administration: sDEGs, gene modules, hierarchical clustering; type: in vivo, C57BL/6 mice; details: lymph node; as to adjuvant group (cluster) in LN: key: G1 (interferon signaling); G2 (metabolism of lipids and lipoproteins); G3 (response to stress); G4 (response to wounding); G5 (phosphate-containing compound metabolic process); G6 (phagosome)
[2] = tested on: preferentially upregulated genes in LV, SP, LN; experiment: Z-score-based differential gene expression analysis (adjuvant group- or adjuvant-associated genes, 40 module mapping, TargetMine annotation); type: in vivo, C57BL/6 mice; details: for Adar 1425405_a_at (Group G1, Modules 20) / Adar 1434268_at (Group G1, Modules 20) / Ddx58 1436562_at (Group G1, Modules 20) / Ddx58 1456890_at (Group G1, Modules 20) / Gm9706///Isg15 1431591_s_at (Group G1, Modules 20) / Ifit1 1450783_at (Group G1, Modules 20) / Ifit3 1449025_at (Group G1, Modules 20) / Irgm1 1418825_at (Group G1, Modules 20) / Mndal 1426906_at (Group G1, Modules 20) / Rsad2 1436058_at (Group G1, Modules 20) / Shisa5 1423986_a_at (Group G1, Modules 20) / Shisa5 1437503_a_at (Group G1, Modules 20) / Stat1 1450033_a_at (Group G1, Modules 20) / Stat1 1450034_at (Group G1, Modules 20) / Tor1aip2 1435526_at (Group G1, Modules 20): IP, LV
Outline: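 Gene groups for each organ were built from combined z-score cutoffs across adjuvants, ranging from z>1 to z>3. Scores came from fold changes standardized per gene over the whole organ data set, with the three replicate z-scores added per adjuvant; sums above 3 marked preferential expression.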

[3] = liver (LV), gene group G1, module 20, individual mice x1-x3, route ID/IP/IN

## CC(O)COC[C@H]1O[C@@H]2O[C@H]3[C@H](O)[C@@H](O)[C@@H](O[C@H]4[C@H](O)[C@@H](O)[C@@H](O[C@H]5[C@H](O)[C@@H](O)[C@@H](O[C@H]6[C@H](O)[C@@H](O)[C@@H](O[C@H]7[C@H](O)[C@@H](O)[C@@H](O[C@H]8[C@H](O)[C@@H](O)[C@@H](O[C@H]1[C@H](O)[C@H]2O)O[C@@H]8COCC(C)O)O[C@@H]7COCC(C)O)O[C@@H]6COCC(C)O)O[C@@H]5COCC(C)O)O[C@@H]4COCC(C)O)O[C@@H]3COCC(C)O (stereo partly drawn) [bCD, Hydroxypropyl-beta-cyclodextrin]
[1]; hierarchical clustering
  adjuvant group (cluster) in LN: G2
[1]; i.d. administration, fold change <0.667, p<0.01, customized PA call=1, 6 h after adjuvant
  Number of gene probes with statistically significant changes (sDEGs), LN, Down: 110
[1]; i.d. administration, fold change >1.5, p<0.01, customized PA call=1, 6 h after adjuvant
  Number of gene probes with statistically significant changes (sDEGs), LN, Up: 89
[2]; sample x1
  Adar 1425405_a_at (Group G1, Modules 20): −0.5
  Adar 1434268_at (Group G1, Modules 20): −0.3
  Ddx58 1436562_at (Group G1, Modules 20): −0.4
  Ddx58 1456890_at (Group G1, Modules 20): −0.6
  Gm9706///Isg15 1431591_s_at (Group G1, Modules 20): −0.5
  Ifit1 1450783_at (Group G1, Modules 20): −0.5
  Ifit3 1449025_at (Group G1, Modules 20): −0.5
  Irgm1 1418825_at (Group G1, Modules 20): −0.5
  Mndal 1426906_at (Group G1, Modules 20): −0.3
  Rsad2 1436058_at (Group G1, Modules 20): −0.5
  Shisa5 1423986_a_at (Group G1, Modules 20): −0.6
  Shisa5 1437503_a_at (Group G1, Modules 20): −0.4
  Stat1 1450033_a_at (Group G1, Modules 20): −0.5
  Stat1 1450034_at (Group G1, Modules 20): −0.5
  Tor1aip2 1435526_at (Group G1, Modules 20): −0.4
[2]; sample x2
  Adar 1425405_a_at (Group G1, Modules 20): −0.4
  Adar 1434268_at (Group G1, Modules 20): −0.4
  Ddx58 1436562_at (Group G1, Modules 20): −0.3
  Ddx58 1456890_at (Group G1, Modules 20): −0.4
  Gm9706///Isg15 1431591_s_at (Group G1, Modules 20): −0.5
  Ifit1 1450783_at (Group G1, Modules 20): −0.5
  Ifit3 1449025_at (Group G1, Modules 20): −0.5
  Irgm1 1418825_at (Group G1, Modules 20): −0.6
  Mndal 1426906_at (Group G1, Modules 20): −0.3
  Rsad2 1436058_at (Group G1, Modules 20): −0.4
  Shisa5 1423986_a_at (Group G1, Modules 20): −0.3
  Shisa5 1437503_a_at (Group G1, Modules 20): −0.3
  Stat1 1450033_a_at (Group G1, Modules 20): −0.6
  Stat1 1450034_at (Group G1, Modules 20): −0.5
  Tor1aip2 1435526_at (Group G1, Modules 20): −0.3
[2]; sample x3
  Adar 1425405_a_at (Group G1, Modules 20): −0.3
  Adar 1434268_at (Group G1, Modules 20): −0.4
  Ddx58 1436562_at (Group G1, Modules 20): −0.1
  Ddx58 1456890_at (Group G1, Modules 20): −0.3
  Gm9706///Isg15 1431591_s_at (Group G1, Modules 20): −0.5
  Ifit1 1450783_at (Group G1, Modules 20): −0.5
  Ifit3 1449025_at (Group G1, Modules 20): −0.5
  Irgm1 1418825_at (Group G1, Modules 20): −0.5
  Mndal 1426906_at (Group G1, Modules 20): −0.5
  Rsad2 1436058_at (Group G1, Modules 20): −0.4
  Shisa5 1423986_a_at (Group G1, Modules 20): −0.3
  Shisa5 1437503_a_at (Group G1, Modules 20): −0.3
  Stat1 1450033_a_at (Group G1, Modules 20): −0.5
  Stat1 1450034_at (Group G1, Modules 20): −0.5
  Tor1aip2 1435526_at (Group G1, Modules 20): −0.6
[2]; [3]
  Z score of gene expression, Adar (probe 1425405_a_at): −0.4 and −0.6 and −0.7
  Z score of gene expression, Adar (probe 1434268_at): −0.1 and −0.5 and −0.3
  Z score of gene expression, Ddx58 (probe 1436562_at): −0.7
  Z score of gene expression, Ddx58 (probe 1456890_at): −0.6 and −0.7 (2×)
  Z score of gene expression, Eif2ak2 (probe 1422005_at): −0.4 and −0.6 and −0.5
  Z score of gene expression, G3bp2 (probe 1421323_a_at): −0.3 (2×) and −0.4
  Z score of gene expression, Gm9706///Isg15 (probe 1431591_s_at): −0.5
  Z score of gene expression, H2-T10///H2-T22///H2-T9 (probe 1449875_s_at): −0.6 (2×) and −0.8
  Z score of gene expression, Ifih1 (probe 1426276_at): −0.5 and −0.6 (2×)
  Z score of gene expression, Ifit1 (probe 1449025_at): −0.5
  Z score of gene expression, Ifit1 (probe 1450783_at): −0.5
  Z score of gene expression, Irf7 (probe 1417244_a_at): −0.4 (2×) and −0.5
  Z score of gene expression, Irgm1 (probe 1418825_at): −0.5 and −0.7 and −0.6
  Z score of gene expression, Mndal (probe 1426906_at): −0.5 and −0.6 (2×)
  Z score of gene expression, Pml (probe 1448757_at): −0.6 and −0.7 (2×)
  Z score of gene expression, Pml (probe 1456103_at): −0.6 (2×) and −0.5
  Z score of gene expression, Rnf213 (probe 1455500_at): −0.5 and −0.6 (2×)
  Z score of gene expression, Rsad2 (probe 1436058_at): −0.5
  Z score of gene expression, Shisa5 (probe 1423986_a_at): −0.6 and −0.7 and −0.8
  Z score of gene expression, Shisa5 (probe 1437503_a_at): −0.4 and −0.7 and −0.5
  Z score of gene expression, Stat1 (probe 1450033_a_at): −0.6
  Z score of gene expression, Stat1 (probe 1450034_at): −0.5 and −0.6 (2×)
  Z score of gene expression, Tdrd7 (probe 1426716_at): −0.7 and −1 and −0.9
  Z score of gene expression, Tor1aip2 (probe 1418115_s_at): −0.2 and −0.7 and −0.6
  Z score of gene expression, Tor1aip2 (probe 1418116_at): −0.4 and −0.8 and −0.6
  Z score of gene expression, Tor1aip2 (probe 1435526_at): −0.4 (2×) and −0.7
  Z score of gene expression, Trim12a (probe 1437432_a_at): −0.5
  Z score of gene expression, Uba7 (probe 1426970_a_at): −0.6 (2×) and −0.7
